Data from patent US5972956A, “Inhibition of amyloidosis by 9-acridinones” (Warner-Lambert Company, priority 1998, dated 1999).

Each compound was assayed against T1, beta amyloid peptide (1-40) (Homo sapiens, UniProt P05067) (assay: in vitro amyloid aggregation assay (filtration of I125-labeled peptide aggregates)). Details: beta amyloid peptide (1-40) with I125 labeled peptide, sodium phosphate buffer pH 6.0, 2 hours at room temperature; read-out: IC50, concentration required to cause a 50% inhibition of amyloid aggregation.
T1 construct: beta amyloid peptide (1-40)
Format: biochemical
Description: The ability of the 9-acridinone compounds of the above formula to inhibit amyloid aggregation has been established in a standard in vitro assay. The assay is carried out by mixing beta amyloid peptide (1-40) with radioiodinated (I^125) labeled peptide to a concentration of 2.5 mg/mL in hexafluoroisopropanol. The mixture is diluted 1 to 5 with water (v/v). […] of the solution is mixed with 25 μL of 25 mM sodium phosphate buffer pH 6.0. The mixture is allowed to aggregate for 2 hours at room temperature with and without a test compound present. The mixtures are then diluted to 235 μL with phosphate buffer to stop the aggregation process. The solutions are passed through a 0.2-μm millipore filtermat. Aggregated protein remains in the filter well. The filter plate is washed with 50 μL of phosphate buffer and then soaked in solid gel scintillant and counted on a Microbeta counter to determine the amount of aggregation in the presence of a test compound versus control with no test compound.
Several representative 9-acridinone compounds have been evaluated in the above assay and shown to inhibit amyloid aggregation. The following table presents the activity of selected compounds, reported as the molar concentration of compounds required to cause a 50% inhibition (IC50) of amyloid aggregation in the above assay.

T1 sequence (P05067 672-711 limits assumed): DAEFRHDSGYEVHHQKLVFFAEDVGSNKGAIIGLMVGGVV

| SMILES | IC50 [µM] |
| --- | --- |
| CSc1ccc2[nH]c3c([N+](=O)[O-])ccc(NCCCN(C)C)c3c(=O)c2c1 [compound 1] | 7.1 |
| CCN(CC)CCNc1ccc([N+](=O)[O-])c2[nH]c3ccc(OCCN(CC)CC)cc3c(=O)c12 [compound 7] | 35.6 |
| CCN(CC)CCNc1ccc([N+](=O)[O-])c2[nH]c3ccc(O)cc3c(=O)c12 [Compound No. 9] | 20.5 |
| CCN(CC)CCCNc1ccc([N+](=O)[O-])c2[nH]c3ccc(OC)cc3c(=O)c12 [compound 5] | 21 |
| CCCCOc1ccc2[nH]c3c([N+](=O)[O-])ccc(NCCN(C)C)c3c(=O)c2c1 [compound 4] | 25 |
| CCN(CC)CCNc1ccc([N+](=O)[O-])c2[nH]c3ccc(OC)cc3c(=O)c12 [compound 10] | 13.9 |
| CCN(CC)CCNc1ccc([N+](=O)[O-])c2c1c(=O)c1cc(OC)ccc1n2C [compound 12] | 23.2 |

More lines, in order of falling IC50, values ahead:

| IC50 [µM] | SMILES |
| --- | --- |
| 29.5 | CCN(CC)CCNc1ccc([N+](=O)[O-])c2[nH]c3ccccc3c(=O)c12 [compound 11] |
| 24.3 | CCOc1ccc2[nH]c3c([N+](=O)[O-])ccc(NC(C)CN(C)C)c3c(=O)c2c1 (stereo not shown) [compound 13] |
| 20 | CCOc1ccc2[nH]c3c([N+](=O)[O-])ccc(NCCN(CCO)CCO)c3c(=O)c2c1 [compound 8] |
| 18.7 | CCN(CC)CCNc1ccc([N+](=O)[O-])c2[nH]c3cc(Cl)c(OC)cc3c(=O)c12 [compound 6] |
| 11 | CCN(CC)CCNc1ccc([N+](=O)[O-])c2[nH]c3cc(OC)c(OC)cc3c(=O)c12 [compound 3] |
| 9 | CCN(CC)CCNc1ccc([N+](=O)[O-])c2[nH]c3ccc(SC)cc3c(=O)c12 [compound 2] |
